Results on 15 compounds are retold here after ChEMBL document CHEMBL4651402, “Screening of ~5500 FDA-approved drugs and clinical candidates for anti-SARS-CoV-2 activity” (2021).

Data set [1] deals with SARS-CoV-2. Description: microbe, parasite or virus in culture. It counts as functional, organism-based, Chlorocebus sabaeus, Vero C1008. The following applies: Severe acute respiratory syndrome coronavirus 2, Vero C1008, 48 h.
Data set [2] relates to SARS-CoV-2. The data set can be described thus: microbe, parasite or virus in culture. The settings on record: Severe acute respiratory syndrome coronavirus 2, Vero C1008, 48 h.
A further data set can be described thus: in vitro. The following applies: chlorocebus sabaeus, Vero E6 (Vero C1008) cells.

Some results are limits rather than exact numbers.

`Cc1nc(Nc2ccc(F)cc2)nc(N2CCc3ccccc3C2C)c1C` (stereo not given) [REVAPRAZAN]: the IC50 in the data set on SARS-CoV-2 [1] (read-out: IC50) was 10.5 µM; with SARS-CoV-2 [1] (read-out: pIC50 (converted)), 10.5 µM; with SARS-CoV-2 [2], over 100 µM; in the data set on SARS-CoV-2 [2] (read-out: pIC50 (converted)) it was over 100 µM. The CC50 at 48 h in the data set “in vitro” (CC50) and in the data set “in vitro” (pCC50) was 11.5 µM each time.

`CN(C)C(=O)c1cc2cnc(Nc3ccc(N4CCNCC4)cn3)nc2n1C1CCCC1` [RIBOCICLIB]: the IC50 in the data set on SARS-CoV-2 [1] (read-out: IC50), in the data set with SARS-CoV-2 [1] (read-out: pIC50 (converted)), in the data set on SARS-CoV-2 [2] and in the data set on SARS-CoV-2 [2] (read-out: pIC50 (converted)) was over 100 µM throughout. Besides, the CC50 at 48 h in the data set “in vitro” (CC50) and in the data set “in vitro” (pCC50) was 38.9 µM throughout.

`Cc1cc2nc3c(=O)[nH]c(=O)nc-3n(C[C@H](O)[C@H](O)[C@H](O)CO)c2cc1C` [RIBOFLAVIN]: the IC50 in the data set with SARS-CoV-2 [1] (read-out: IC50) is over 50.1 µM; in the data set on SARS-CoV-2 [1] (read-out: pIC50 (converted)), over 50.1 µM; in the data set on SARS-CoV-2 [2], about 11.2 µM; in the data set on SARS-CoV-2 [2] (read-out: pIC50 (converted)) it was about 11.2 µM. Besides, the CC50 at 48 h in “in vitro” (CC50) and in the data set “in vitro” (pCC50) was over 50.1 µM in each case.

For `OCc1cc(C(O)CNCCCCCCOCCCCc2ccccc2)ccc1O` (stereo not given) [SALMETEROL], the IC50 is over 100 µM with SARS-CoV-2 [1] (read-out: IC50), over 100 µM in the data set with SARS-CoV-2 [1] (read-out: pIC50 (converted)), 19.1 µM in the data set on SARS-CoV-2 [2] and 19.1 µM in the data set with SARS-CoV-2 [2] (read-out: pIC50 (converted)). Further, the cytotoxic concentration (CC50) at 48 h in the data set “in vitro” (CC50) and in “in vitro” (pCC50) was 18.6 µM throughout.

For `CCC(C)n1ncn(-c2ccc(N3CCN(c4ccc(OC[C@H]5CO[C@](Cn6cncn6)(c6ccc(F)cc6F)O5)cc4)CC3)cc2)c1=O` (stereo not given in full) [SAPERCONAZOLE], the IC50 in the data set on SARS-CoV-2 [1] (read-out: IC50), with SARS-CoV-2 [1] (read-out: pIC50 (converted)), in the data set with SARS-CoV-2 [2] and in the data set on SARS-CoV-2 [2] (read-out: pIC50 (converted)) was over 100 µM in each case. Further, the CC50 at 48 h in “in vitro” (CC50) and in the data set “in vitro” (pCC50) was over 100 µM throughout.

For `Cc1ccc(C(=O)N(CCCN)[C@@H](c2oc3cc(Cl)ccc3c(=O)c2Cc2ccccc2)C(C)C)cc1` [SB-743921], the IC50 in the data set on SARS-CoV-2 [1] (read-out: IC50), with SARS-CoV-2 [1] (read-out: pIC50 (converted)), in the data set on SARS-CoV-2 [2] and with SARS-CoV-2 [2] (read-out: pIC50 (converted)) was over 50.1 µM in each case. Besides, the 50% cytotoxic concentration (CC50) at 48 h in “in vitro” (CC50) and in “in vitro” (pCC50) was 2.63 µM each time.

For `Cc1nc2ccccn2c(=O)c1CCN1CCC(=C(c2ccc(F)cc2)c2ccc(F)cc2)CC1` [SEGANSERIN], the IC50 in the data set with SARS-CoV-2 [1] (read-out: IC50) is over 100 µM; in the data set with SARS-CoV-2 [1] (read-out: pIC50 (converted)) it was over 100 µM; in the data set with SARS-CoV-2 [2] it was 7.59 µM; with SARS-CoV-2 [2] (read-out: pIC50 (converted)), 7.59 µM. The CC50 at 48 h in the data set “in vitro” (CC50) and in “in vitro” (pCC50) was 10.2 µM each time.

Consider `CCN(CC)CCNC(=O)c1ccc(NS(C)(=O)=O)cc1` [SEMATILIDE], for which the IC50 is over 100 µM in the data set on SARS-CoV-2 [1] (read-out: IC50), over 100 µM in the data set on SARS-CoV-2 [1] (read-out: pIC50 (converted)), 3.89 µM with SARS-CoV-2 [2] and 3.89 µM in the data set on SARS-CoV-2 [2] (read-out: pIC50 (converted)). Further, the CC50 at 48 h in “in vitro” (CC50) and in “in vitro” (pCC50) was over 100 µM each time.

`NCC[C@H](Oc1ccc(C(F)(F)F)cc1)c1ccccc1` [SEPROXETINE]: the IC50 is over 100 µM in the data set with SARS-CoV-2 [1] (read-out: IC50), over 100 µM in the data set with SARS-CoV-2 [1] (read-out: pIC50 (converted)), 7.59 µM in the data set on SARS-CoV-2 [2] and 7.59 µM in the data set with SARS-CoV-2 [2] (read-out: pIC50 (converted)). In addition, the figures for the cytotoxic concentration (CC50) at 48 h in the data set “in vitro” (CC50) and in “in vitro” (pCC50) were 10.6 µM and 10.5 µM, respectively.

Regarding `Cc1c(CN2CCN(c3cccc(C(F)(F)F)c3)CC2)cc(-c2ccccc2)n1NC(=O)c1ccncc1` [SUDOTERB], the IC50 with SARS-CoV-2 [1] (read-out: IC50), in the data set with SARS-CoV-2 [1] (read-out: pIC50 (converted)), with SARS-CoV-2 [2] and in the data set on SARS-CoV-2 [2] (read-out: pIC50 (converted)) was over 100 µM throughout. For the same compound, the CC50 at 48 h in “in vitro” (CC50) is about 14.3 µM; in “in vitro” (pCC50), about 14.1 µM.

Consider `Cc1cc2cc(Oc3ccnc(Nc4cccc(CS(=O)(=O)NCCN(C)C)c4)n3)ccc2[nH]1` [SURUFATINIB], for which the IC50 was over 50.1 µM in the data set with SARS-CoV-2 [1] (read-out: IC50), over 50.1 µM in the data set with SARS-CoV-2 [1] (read-out: pIC50 (converted)), over 10 µM in the data set on SARS-CoV-2 [2] and over 10 µM with SARS-CoV-2 [2] (read-out: pIC50 (converted)). In addition, the CC50 at 48 h in the data set “in vitro” (CC50) and in “in vitro” (pCC50) was 4.9 µM each time.

Take `COc1cc2c(N3CCN(C(=O)Nc4ccc(OC(C)C)cc4)CC3)ncnc2cc1OCCCN1CCCCC1` [TANDUTINIB]: the IC50 in the data set on SARS-CoV-2 [1] (read-out: IC50), in the data set on SARS-CoV-2 [1] (read-out: pIC50 (converted)), with SARS-CoV-2 [2] and in the data set on SARS-CoV-2 [2] (read-out: pIC50 (converted)) was over 100 µM each time. Besides, the CC50 at 48 h in the data set “in vitro” (CC50) and in “in vitro” (pCC50) was 11.5 µM each time.

In the case of `CN1CCC(COc2cnc(-c3cccc(Cn4nc(-c5cccc(C#N)c5)ccc4=O)c3)nc2)CC1` [TEPOTINIB], the IC50 in the data set on SARS-CoV-2 [1] (read-out: IC50), in the data set on SARS-CoV-2 [1] (read-out: pIC50 (converted)), in the data set on SARS-CoV-2 [2] and in the data set with SARS-CoV-2 [2] (read-out: pIC50 (converted)) was over 100 µM each time. The CC50 at 48 h in “in vitro” (CC50) and in the data set “in vitro” (pCC50) was 5.75 µM each time.

Turning to `CC(C)N1CCN(c2ccc(OCC3COC(Cn4cncn4)(c4ccc(Cl)cc4Cl)O3)cc2)CC1` (stereo not given) [TERCONAZOLE], the IC50 in the data set on SARS-CoV-2 [1] (read-out: IC50) was over 12.6 µM; with SARS-CoV-2 [1] (read-out: pIC50 (converted)) it was over 12.6 µM; with SARS-CoV-2 [2], 16.6 µM; in the data set on SARS-CoV-2 [2] (read-out: pIC50 (converted)), 16.6 µM. The CC50 at 48 h in “in vitro” (CC50) and in “in vitro” (pCC50) was about 10 µM throughout.

Take `CC(C)(C)c1ccc(C(O)CCCN2CCC(C(O)(c3ccccc3)c3ccccc3)CC2)cc1` (stereo not given) [TERFENADINE]: the IC50 in the data set on SARS-CoV-2 [1] (read-out: IC50), with SARS-CoV-2 [1] (read-out: pIC50 (converted)), in the data set with SARS-CoV-2 [2] and in the data set on SARS-CoV-2 [2] (read-out: pIC50 (converted)) was over 100 µM each time. The CC50 at 48 h in “in vitro” (CC50) and in the data set “in vitro” (pCC50) was about 5.13 µM each time.

As a reminder, the CC50 is the concentration at which the toxic effect on the cells reaches its halfway point. Low values mean greater toxicity to the cells, high ones lower toxicity to the cells.
